The subject of series [1] is bovine serum albumin (BSA). As to the kind of experiment: Adjuvant character in the aqueous phase: anti-body level by passive hemagglutination after BSA with the substance. The class given is in vivo. As to conditions: Swiss mice, SC; for Log2 hemagglutinating titer, Primary response D 28: 0.5 mg BSA with 0.1 mg substance in isotonic saline, before booster; for Log2 hemagglutinating titer, Secondary response D 36: 0.5 mg BSA with 0.1 mg substance, booster 0.1 mg BSA thirty days later, six days after booster. The procedure: Groups of 8 Swiss mice aged two months receive, by sub-cutaneous injection (SC), 0.5 mg of antigen constituted by bovine serum albumin (BSA) with (0.1 mg) or without the substance under test in an isotonic saline solution. This high dose of antigen, because it is situated at the limit of the paralysing dose with respect to the immune response, results, through this fact, in a weak or nul response to the antigen alone in the controls; it constitutes therefore a severe criterion to establish the activity of an adjuvant substance. Thirty days later, the mice receive, by the same route of administration, a booster containing 0.1 mg of the same antigen.
The anti-body level is determined, before and six days after the booster, by passive hemagglutination using sheep's red blood cells treated with formalin and covered with the antigen under study according to the method described by A. A. HIRATA and M. W. BRANDISS (J. Immunol., 100, 641-648, 1968).
The anty-body titer, represented by the maximum serum dilution agglutinating a given amount of sheep's red blood cells reaches a maximum at the 36th day following the first injection and is estblished in the following manner.

For another series, the system named is Ovalbumin. Put plainly: Adjuvant character in emulsion (FIA): delayed hypersensitivity and specific anti-bodies to ovalbumin. The class given is in vivo, Hartley males. The note with it: 100 μg where printed, no dose given for the methyl ester; for φ mm induration after 48 h: delayed hypersensitivity to 0.025 mg ovalbumin intradermal, 18 days after immunisation with 1 mg ovalbumin in FIA emulsion; for antibodies Log2 μg/ml: serum 21 days after injection, nitrogen precipitatable by ovalbumin, 1 mg ovalbumin in FIA emulsion. The procedure: The tests were carried out on batches of 6 Hartley males of 350 g. The administration was done by intradermal injection into the plantar pad of each of the rear paws. Ovalbumin (constituting the antigen) in the proportion of 1 mg is prepared in 0.1 ml of an emulsion of saline isotonic solution, in an oily phase constituted by the Freund incomplete adjuvant (FIA).
Eighteen days after this immunisation, possible delayed hypersensitivity reactions (HSR) to the antigen were sought by injecting by the intradermal route 0.025 mg of ovalbumin in the side of the animals, […] The diameter in millimiters of the reaction so-caused was measured.
Twenty one days after the injection, the animals were bled. In the serum collected, the contents of specific anti-bodies of the ovalbumin was measured by precipitation of the antibody-antigen complex in the equivalent zone. The amount of protein nitrogen contained in this precipitate was devaluated by the Folin method. The mean values of the contents of antibodies are indicated in the Table of results by the logarithm to base 2. These values express the amount, in micrograms of nitrogen precipitatable by the antigen, per millimiter of serum.

A further series concerns rabbit. As to conditions: in vivo.

Description for rabbit: In addition, the eventuality of a pyrogenic effect in the rabbit was sought, by following the protocol of the European Pharmacopoea, Vol. 2, 1971, pages 58-60.

On to “N-acetyl-muramyl-N-methyl-L-alanyl-D-isoglutamine [MDP-(N--methyl-Ala)]”, for which, in series [1], the “Log2 hemagglutinating titer, Primary response D 28” value stood at 4.64 and the “Log2 hemagglutinating titer, Secondary response D 36” value amounted to 9.27 ± 1.19. In the series on Ovalbumin, the “φ mm induration after 48 h” value was 14 ± 0.8 mm and the “antibodies Log2 μg/ml” value is 12.51 ± 0.88 Log2 μg/ml. For the same compound, the pyrogenic character entry with rabbit is recorded as “absence of a pyrogenic character”.

As to `CC(=O)N[C@@H]1[C@@H](O[C@H](C)C(=O)N[C@@H](C)C(=O)N[C@H](CCC(=O)O)C(N)=O)[C@H](O)[C@@H](CO)O[C@H]1O` [MDP, reference compound], in series [1], the “Log2 hemagglutinating titer, Primary response D 28” value was 3.64 and the “Log2 hemagglutinating titer, Secondary response D 36” value is given as 8.34 ± 1.34. Moreover, in the series on Ovalbumin, the “φ mm induration after 48 h” value is on record as 11.5 ± 2.5 mm and the “antibodies Log2 μg/ml” value turned out to be 12.31 ± 1.01 Log2 μg/ml.

Regarding “N-acetyl-muramyl-N-methyl-L-alanyl-D-glutamine-methyl-ester [MDP-(N--methyl-Ala)--OCH3]”, in series [1], the “Log2 hemagglutinating titer, Secondary response D 36” value was 5.11. Further, in the series on Ovalbumin, the “φ mm induration after 48 h” value worked out at 5 ± 2 mm and the “antibodies Log2 μg/ml” value is on record as 10.11 ± 0.6 Log2 μg/ml. Moreover, in the series on rabbit, the pyrogenic character result is listed as “absence of a pyrogenic character”.

(Values after patent publication US4427659A, “Muramyl peptide substituted on a peptide nitrogen and medicaments containing the same” (Agence Nationale de Valorisation de la Recherche (ANVAR), priority 1979, dated 1984).)
